In assay [1] the target is T1, 3',5'-cyclic-AMP phosphodiesterase 4B (Homo sapiens, UniProt Q07343).
Description: Inhibition of human recombinant PDE4B1 using FAM-cAMP as substrate incubated for 20 mins
Assay [2] has as its target T2, cAMP and cAMP-inhibited cGMP 3',5'-cyclic phosphodiesterase 10A (Homo sapiens, UniProt Q9Y233).
Description: Inhibition of PDE10A (unknown origin)
Assay [3] has as its target Dual specificity calcium/calmodulin-dependent 3',5'-cyclic nucleotide phosphodiesterase 1B (Homo sapiens, UniProt Q01064).
Description: Inhibition of PDE1B (unknown origin)
Assay [4] addresses T3, cGMP-specific 3',5'-cyclic phosphodiesterase (Homo sapiens, UniProt O76074).
Description: Inhibition of PDE5A1 (unknown origin) using FAM-cGMP as substrate incubated for 60 mins by IMAP-fluorescence polarization assay
The next assay has as its target T4, Acetylcholinesterase (Rattus norvegicus, UniProt P37136).
T4 sequence (P37136 whole entry): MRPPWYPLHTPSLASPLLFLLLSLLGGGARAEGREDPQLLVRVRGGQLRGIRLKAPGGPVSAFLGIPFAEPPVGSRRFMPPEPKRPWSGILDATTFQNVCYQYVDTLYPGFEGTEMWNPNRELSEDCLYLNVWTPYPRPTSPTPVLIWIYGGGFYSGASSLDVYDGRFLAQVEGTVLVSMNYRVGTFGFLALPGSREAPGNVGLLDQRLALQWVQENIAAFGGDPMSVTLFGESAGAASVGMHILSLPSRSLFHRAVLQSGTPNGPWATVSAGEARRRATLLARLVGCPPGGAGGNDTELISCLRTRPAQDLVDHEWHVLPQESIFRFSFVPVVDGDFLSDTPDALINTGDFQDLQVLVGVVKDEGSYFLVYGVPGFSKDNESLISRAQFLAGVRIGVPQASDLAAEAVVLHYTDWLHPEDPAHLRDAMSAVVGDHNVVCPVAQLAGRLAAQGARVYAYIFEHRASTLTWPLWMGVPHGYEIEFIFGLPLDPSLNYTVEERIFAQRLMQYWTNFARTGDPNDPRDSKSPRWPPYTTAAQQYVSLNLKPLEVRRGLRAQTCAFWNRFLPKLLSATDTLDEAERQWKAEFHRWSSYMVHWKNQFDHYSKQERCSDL

Assay [5] addresses High affinity cGMP-specific 3',5'-cyclic phosphodiesterase 9A (Homo sapiens, UniProt O76083).
Description: Inhibition of PDE9A (unknown origin)
Assay [6] deals with T2, cAMP and cAMP-inhibited cGMP 3',5'-cyclic phosphodiesterase 10A. This is another data set of the same source.
The target of assay [7] is cGMP-dependent 3',5'-cyclic phosphodiesterase (Homo sapiens, UniProt O00408).
The target of another assay is Phosphodiesterase 4 (Homo sapiens, UniProt P27815+Q08499+Q07343+Q08493). The format is protein assay.
For assay [8], the target named is T3, cGMP-specific 3',5'-cyclic phosphodiesterase. This is another data set of the same source.
Description: Inhibition of human recombinant PDE5A using (Fl)-cAMP and TAMRA-cGMP as substrate incubated for 60 mins by IMAP-fluorescence polarization assay
Assay [9] has as its target T1, 3',5'-cyclic-AMP phosphodiesterase 4B. The source holds these as a separate data set.
Description: Displacement of [3H]-cAMP from full-length recombinant human PDE4B1 by fluorescence polarisation assay
In assay [10] the target is 3',5'-cyclic-AMP phosphodiesterase 4D (Homo sapiens, UniProt Q08499).
Description: Displacement of [3H]-cAMP from full-length recombinant human PDE4D7 by fluorescence polarisation assay
In assay [11] the target is High affinity cAMP-specific and IBMX-insensitive 3',5'-cyclic phosphodiesterase 8A (Homo sapiens, UniProt O60658). Nature of the assay: biochemical. The format is cell-based, Sf9.
Description: Inhibition of human recombinant PDE8A expressed in baculovirus infected Sf9 insect cells

For 15 compounds, IC50 results are on record in ChEMBL document CHEMBL5226285, “The long and winding road of designing phosphodiesterase inhibitors for the treatment of heart failure” (Eur J Med Chem, 2021).

Structures are written as SMILES. Some results are limits rather than exact numbers.

T1 sequence (Q07343 whole entry): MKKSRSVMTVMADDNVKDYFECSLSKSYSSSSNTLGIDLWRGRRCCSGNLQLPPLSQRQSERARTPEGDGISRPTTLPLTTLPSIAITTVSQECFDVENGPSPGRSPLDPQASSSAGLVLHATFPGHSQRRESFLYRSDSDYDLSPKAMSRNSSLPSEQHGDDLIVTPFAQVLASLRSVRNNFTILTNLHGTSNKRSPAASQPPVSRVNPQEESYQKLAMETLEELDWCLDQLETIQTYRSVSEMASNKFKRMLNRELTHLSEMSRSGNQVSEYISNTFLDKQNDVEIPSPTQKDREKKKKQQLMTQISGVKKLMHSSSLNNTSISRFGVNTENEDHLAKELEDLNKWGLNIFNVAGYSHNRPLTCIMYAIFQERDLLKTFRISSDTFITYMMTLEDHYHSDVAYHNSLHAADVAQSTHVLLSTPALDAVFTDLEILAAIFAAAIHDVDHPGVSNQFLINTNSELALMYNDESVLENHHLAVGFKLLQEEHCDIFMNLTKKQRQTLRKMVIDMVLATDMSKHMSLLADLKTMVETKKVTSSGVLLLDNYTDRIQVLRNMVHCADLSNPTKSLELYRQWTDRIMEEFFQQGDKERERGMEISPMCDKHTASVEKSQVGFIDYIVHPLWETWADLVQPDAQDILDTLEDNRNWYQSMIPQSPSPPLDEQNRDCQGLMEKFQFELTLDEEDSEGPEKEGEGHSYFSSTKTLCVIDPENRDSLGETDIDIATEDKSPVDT
Sequence of Dual specificity calcium/calmodulin-dependent 3',5'-cyclic nucleotide phosphodiesterase 1B (Q01064 whole entry): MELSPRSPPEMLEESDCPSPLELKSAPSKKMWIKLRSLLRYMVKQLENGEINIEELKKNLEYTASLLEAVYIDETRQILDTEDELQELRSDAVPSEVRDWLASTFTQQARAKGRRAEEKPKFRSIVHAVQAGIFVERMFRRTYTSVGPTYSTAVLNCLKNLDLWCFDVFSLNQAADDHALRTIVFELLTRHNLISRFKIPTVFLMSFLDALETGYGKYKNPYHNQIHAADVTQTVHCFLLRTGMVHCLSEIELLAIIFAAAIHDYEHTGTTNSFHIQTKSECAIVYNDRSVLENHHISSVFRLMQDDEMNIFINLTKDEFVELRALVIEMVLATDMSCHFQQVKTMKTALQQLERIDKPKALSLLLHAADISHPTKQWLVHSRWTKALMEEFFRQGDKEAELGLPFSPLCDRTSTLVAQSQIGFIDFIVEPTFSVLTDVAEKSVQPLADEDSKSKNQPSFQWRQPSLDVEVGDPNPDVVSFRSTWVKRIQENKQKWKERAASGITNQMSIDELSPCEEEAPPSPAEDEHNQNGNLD
T2 sequence (Q9Y233 whole entry): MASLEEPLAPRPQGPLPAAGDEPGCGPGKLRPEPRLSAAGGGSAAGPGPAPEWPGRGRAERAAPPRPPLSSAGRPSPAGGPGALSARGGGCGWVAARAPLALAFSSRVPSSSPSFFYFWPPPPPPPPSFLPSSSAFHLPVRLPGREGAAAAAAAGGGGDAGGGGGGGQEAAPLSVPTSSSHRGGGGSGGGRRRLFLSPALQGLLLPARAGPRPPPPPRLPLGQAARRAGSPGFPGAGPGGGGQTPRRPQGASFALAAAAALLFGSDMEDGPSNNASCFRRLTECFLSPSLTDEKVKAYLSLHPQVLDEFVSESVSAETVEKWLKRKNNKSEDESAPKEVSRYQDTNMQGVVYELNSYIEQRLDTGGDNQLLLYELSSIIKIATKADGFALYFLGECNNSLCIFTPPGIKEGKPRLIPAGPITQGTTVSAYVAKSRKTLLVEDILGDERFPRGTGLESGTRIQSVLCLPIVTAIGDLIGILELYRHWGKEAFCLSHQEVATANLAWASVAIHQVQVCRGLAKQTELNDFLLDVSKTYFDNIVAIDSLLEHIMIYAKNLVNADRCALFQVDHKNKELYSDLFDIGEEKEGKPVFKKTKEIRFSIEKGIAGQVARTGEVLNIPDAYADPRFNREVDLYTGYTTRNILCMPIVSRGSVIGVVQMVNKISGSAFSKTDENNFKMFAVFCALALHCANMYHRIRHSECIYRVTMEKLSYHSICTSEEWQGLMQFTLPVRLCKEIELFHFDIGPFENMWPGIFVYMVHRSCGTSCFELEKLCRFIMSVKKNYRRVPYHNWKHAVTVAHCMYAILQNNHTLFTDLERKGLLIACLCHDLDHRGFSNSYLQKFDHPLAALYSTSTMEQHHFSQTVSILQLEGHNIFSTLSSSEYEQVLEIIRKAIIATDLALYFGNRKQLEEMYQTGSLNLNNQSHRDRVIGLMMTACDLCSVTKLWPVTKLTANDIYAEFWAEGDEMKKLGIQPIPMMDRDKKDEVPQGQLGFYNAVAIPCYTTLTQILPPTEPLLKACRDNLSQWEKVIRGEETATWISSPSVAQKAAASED
Sequence of cGMP-dependent 3',5'-cyclic phosphodiesterase (O00408 whole entry): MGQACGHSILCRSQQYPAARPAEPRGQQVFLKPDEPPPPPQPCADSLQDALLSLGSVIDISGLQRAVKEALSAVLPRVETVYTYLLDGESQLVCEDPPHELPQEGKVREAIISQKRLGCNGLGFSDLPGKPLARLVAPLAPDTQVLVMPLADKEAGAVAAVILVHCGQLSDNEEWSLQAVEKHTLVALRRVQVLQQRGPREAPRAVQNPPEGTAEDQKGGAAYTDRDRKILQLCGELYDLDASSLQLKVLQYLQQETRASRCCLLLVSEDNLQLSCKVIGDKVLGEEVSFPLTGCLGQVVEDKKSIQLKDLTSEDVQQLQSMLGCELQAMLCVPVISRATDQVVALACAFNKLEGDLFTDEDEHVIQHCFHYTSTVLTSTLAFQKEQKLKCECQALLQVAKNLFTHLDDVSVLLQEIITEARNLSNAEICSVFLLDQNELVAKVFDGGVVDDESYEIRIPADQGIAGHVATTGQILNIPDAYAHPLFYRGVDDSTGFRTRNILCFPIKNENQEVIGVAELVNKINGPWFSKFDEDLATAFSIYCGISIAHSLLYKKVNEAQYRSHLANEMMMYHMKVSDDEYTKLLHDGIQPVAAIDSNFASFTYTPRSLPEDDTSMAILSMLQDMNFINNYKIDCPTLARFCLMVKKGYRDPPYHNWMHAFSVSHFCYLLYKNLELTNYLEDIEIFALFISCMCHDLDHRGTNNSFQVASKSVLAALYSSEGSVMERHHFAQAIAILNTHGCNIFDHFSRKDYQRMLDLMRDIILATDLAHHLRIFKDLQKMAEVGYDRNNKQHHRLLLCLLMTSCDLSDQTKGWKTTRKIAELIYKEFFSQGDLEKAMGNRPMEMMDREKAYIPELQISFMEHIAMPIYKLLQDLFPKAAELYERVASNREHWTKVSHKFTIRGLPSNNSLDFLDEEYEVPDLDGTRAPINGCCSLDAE
Sequence of 3',5'-cyclic-AMP phosphodiesterase 4D (Q08499 whole entry): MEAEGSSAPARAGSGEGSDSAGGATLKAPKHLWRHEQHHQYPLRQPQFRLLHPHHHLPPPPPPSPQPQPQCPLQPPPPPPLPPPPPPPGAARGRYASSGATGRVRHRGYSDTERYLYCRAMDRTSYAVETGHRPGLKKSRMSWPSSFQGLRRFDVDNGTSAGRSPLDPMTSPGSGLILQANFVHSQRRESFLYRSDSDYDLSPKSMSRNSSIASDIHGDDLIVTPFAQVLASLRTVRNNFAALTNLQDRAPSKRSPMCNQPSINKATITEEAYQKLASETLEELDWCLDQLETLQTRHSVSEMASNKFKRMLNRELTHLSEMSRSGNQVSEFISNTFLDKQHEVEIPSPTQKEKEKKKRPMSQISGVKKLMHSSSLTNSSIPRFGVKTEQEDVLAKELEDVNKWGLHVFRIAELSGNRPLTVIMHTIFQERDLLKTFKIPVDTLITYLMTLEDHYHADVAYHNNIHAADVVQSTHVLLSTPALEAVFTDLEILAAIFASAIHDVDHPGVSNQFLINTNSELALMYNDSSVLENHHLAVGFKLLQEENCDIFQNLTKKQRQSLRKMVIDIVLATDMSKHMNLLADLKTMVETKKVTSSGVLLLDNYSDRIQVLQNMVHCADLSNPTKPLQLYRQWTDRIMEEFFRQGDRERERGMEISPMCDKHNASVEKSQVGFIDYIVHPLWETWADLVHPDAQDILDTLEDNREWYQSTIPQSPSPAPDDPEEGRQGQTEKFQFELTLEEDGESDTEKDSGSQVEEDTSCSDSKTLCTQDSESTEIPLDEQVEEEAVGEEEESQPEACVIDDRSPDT
Sequence of High affinity cAMP-specific and IBMX-insensitive 3',5'-cyclic phosphodiesterase 8A (O60658 whole entry): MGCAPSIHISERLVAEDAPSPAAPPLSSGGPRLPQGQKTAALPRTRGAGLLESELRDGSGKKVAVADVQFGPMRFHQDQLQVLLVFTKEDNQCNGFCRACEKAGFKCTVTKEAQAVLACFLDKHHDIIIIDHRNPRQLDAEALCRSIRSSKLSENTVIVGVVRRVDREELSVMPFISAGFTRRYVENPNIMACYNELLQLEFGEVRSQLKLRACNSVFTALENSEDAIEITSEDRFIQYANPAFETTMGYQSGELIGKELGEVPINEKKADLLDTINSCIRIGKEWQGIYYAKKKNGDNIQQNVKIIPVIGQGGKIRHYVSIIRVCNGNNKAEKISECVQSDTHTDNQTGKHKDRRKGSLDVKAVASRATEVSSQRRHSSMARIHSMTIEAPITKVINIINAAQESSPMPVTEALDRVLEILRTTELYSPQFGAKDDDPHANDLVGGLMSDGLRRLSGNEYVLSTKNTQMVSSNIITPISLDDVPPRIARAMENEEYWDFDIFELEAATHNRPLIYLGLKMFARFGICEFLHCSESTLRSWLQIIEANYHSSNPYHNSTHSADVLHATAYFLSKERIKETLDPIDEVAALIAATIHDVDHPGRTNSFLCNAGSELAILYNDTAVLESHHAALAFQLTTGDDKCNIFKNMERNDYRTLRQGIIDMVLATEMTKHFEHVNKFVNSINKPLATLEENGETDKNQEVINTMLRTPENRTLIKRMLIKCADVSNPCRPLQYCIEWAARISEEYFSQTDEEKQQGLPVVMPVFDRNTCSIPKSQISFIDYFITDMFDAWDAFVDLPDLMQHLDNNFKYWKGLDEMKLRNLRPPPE
Description for Acetylcholinesterase: Inhibition of rat cortex AChE using acetylthiocholine iodide as substrate incubated for 20 mins by DTNB-reagent based Ellman's method

In the case of `COc1ccc([C@H]2CCN3C(=O)NC[C@H]23)cc1OC1CCCC1`, half-maximal inhibition in assay [1] (IC50) required 27 nM. For `COc1cc2ncnc(N3CC[C@@H](Oc4cnc5ccccc5n4)C3)c2cc1OC`, the IC50 (in general, the point on the concentration scale where inhibition reaches its midpoint) in assay [2] amounted to 6 nM. Take `COc1cc2ncnc(C(C)c3cccc(Cl)c3)c2cc1OC` (centres undefined): the IC50 in assay [3] was 130 nM. For `O=C1[C@H]2Cc3c([nH]c4ccccc34)[C@@H](c3ccc4c(c3)OCO4)N2C(=O)CN1CCC1CCN(Cc2ccccc2)CC1`, the IC50 in [4] came to 36 nM; on Acetylcholinesterase, 153 nM. Compound `C[C@@H](Nc1nc2c(cnn2C2CCCC2)c(=O)n1Cc1ccccc1)c1ccc(Cl)cc1` came in with an IC50 in assay [5] above 10000 nM. The compound `CCCCOc1ccc(F)c(-c2nc(C)c3nnc4ccc(OCCF)nc4n23)c1` showed an IC50 in assay [6] above 1000 nM. With `Cc1ncn(-c2nc3c(C(=O)N[C@@H](c4ccc(OC(F)(F)F)cc4)C(C)(C)O)cnn3cc2C)n1`, the IC50 in assay [7] came out at 0.51 nM. `CCCN(CCC)c1ncnc2c(OC)c(OC)c(OC)cc12`: in assay [3], the IC50 worked out at 219 nM.

`CC(=O)OCCOc1nc(Oc2ccc3c(c2)COB3O)ccc1C#N` returned an IC50 against Phosphodiesterase 4 of 0.7 nM. As to `O=C1[C@@H]2Cc3c([nH]c4ccccc34)[C@@H](c3ccc4c(c3)OCO4)N2C(=O)CN1CCC1CCN(Cc2ccccc2)CC1`, the IC50 in assay [4] was 32 nM; against Acetylcholinesterase, 1530 nM.

In turn, `CCN1CC(=O)N2[C@H](c3ccc(Cl)cc3)c3[nH]c4ccccc4c3C[C@@H]2C1=O` gave an IC50 in [8] of 3 nM.

In the case of `COc1ccc([C@@H]2c3[nH]c4ccccc4c3C[C@H]3C(=O)N(CCC4CCN(Cc5ccccc5)CC4)CC(=O)N23)cc1`, the IC50 worked out at 15 nM in assay [4] and 3230 nM against Acetylcholinesterase.

Regarding `O=C1NC[C@@H]2[C@@H](c3ccc(OC(F)F)c(OCC4CC4)c3)CCN12`, the IC50 in assay [1] was 18 nM.

For the compound `N#CC(c1ccc(OC(F)F)c(OC2CCCC2)c1)c1ccc(Cl)nn1` (centres undefined), the IC50 amounted to 290 nM in assay [9] and 310 nM in assay [10].

In assay [11], `OCCN(CCO)c1nc(N2CCCCC2)c2nc(N(CCO)CCO)nc(N3CCCCC3)c2n1` [DIPYRIDAMOLE] had an IC50 of 4000 nM.
